The values below come from patent US20240148038A1, “TASTE-MASKING COMPOUNDS AND COMPOSITIONS AND USES THEREOF” (HEALTHTECH BIO ACTIVES, S.L.U., priority 2021, published 2024).

Data set [1] in a line: Masking bitterness of paracetamol: test panel, equibitter paracetamol solution. It counts as in vivo. As to the method:
The bitter masking effect of hesperidin against paracetamol was assayed. The anti-bittering effect was measured as a dose-response profile vs. a solution of paracetamol.
A calibrated test panel compared each solution with several solutions of paracetamol in water at different concentrations and determined the equibitter paracetamol solution. The equibitter solution was calculated as the average of all the evaluations of the panel.
The masking effect or percentage of bitterness reduction was then calculated from the reference amount of paracetamol contained in each tested solution (5000 ppm) and the amount of paracetamol in the equibitter solution, using the following formula: […]
Thus, for example, a solution containing 5000 ppm of paracetamol and 250 ppm of hesperidin was equibitter to a solution containing 4000 ppm of paracetamol. Therefore, the masking effect was 20%.
The bitter masking effect of a racemic hesperidin (57% hesperidin 2S: 43% hesperidin 2R; purchased by HealthTech Bio Actives, S.L.U. Beniel, Spain) against paracetamol was also assayed. The anti-bittering effect was measured as a dose-response profile vs. a solution of paracetamol as described above.
Further, the bitter masking effect of a different flavonoid compound, neodiosmin (purchased by HealthTech Bio Actives, S.L.U. Beniel, Spain), was also tested. The anti-bittering effect was measured as a dose-response profile vs. a solution of paracetamol as explained before.

Data set [2] is described as follows: Panel evaluation in crackers with reduced NaCl containing KCl. The class given is in vivo. The following applies: 200 ppm H2S. The protocol:
A dosage of 200 ppm of H2S was added to crackers with reduced content of sodium chloride (NaCl) and containing potassium chloride (KCl; Panreac). The composition of the crackers is disclosed in Table 4 below:
The taste masking effect was assayed, following an analogous procedure to the one disclosed in Example 1. A panel of experts was used to determine the reduction in unpleasant taste impressions of the potassium chloride-containing preparations after addition of H2S.

A short description of data set [3]: Panel evaluation in tonic water. The class given is in vivo. The settings on record: quinine salt 78 ppm. As to the method:
NaOH:H2O solutions containing different concentrations (100 ppm and 200 ppm) of Hesperidin 2S were prepared as explained above (Table 1) and added to a tonic water samples prepared as indicated in Table 10 below:
A panel of experts was used to determine the reduction in unpleasant taste impression of the different samples.

Data set [4] can be described thus: Panel evaluation in plant-based burger containing oleuropeins. The following applies: plant-based burger with 2000 ppm Olews 40%. The class given is in vivo. The protocol:
Reduction of unpleasant taste impression in a plant-based burger was evaluated using different concentrations of H2S (100 ppm and 200 ppm). Hesperidin 2S (dry powder) was incorporated into the preparations containing 2000 ppm Olews 40% provided by HealthTech Bio Actives, S.L.U. (Beniel, Spain) (2000 ppm Olews 40%=[…]) as indicated in Table 11 below:
A panel of experts was used to determine the reduction in unpleasant taste impressions of the plant-based burger preparations.

A short description of data set [5]: Solubility in water. It counts as physicochemical. The protocol: Hesperidin 2S has a very low solubility in water (less than 10 ppm). However, in presence of NaOH, its solubility increases. In order to study the component in liquid matrixes, a non-heated H2O—NaOH solution was prepared (Table 1).
The nature of data set [6]: Panel evaluation in protein milkshake. It counts as in vivo. The settings on record: 100 ppm or 200 ppm H2S. As to the method:
NaOH:H2O solutions containing different concentrations (100 ppm and 200 ppm) of Hesperidin 2S were prepared as explained above (Table 1) and added to a protein milkshake prepared as indicated in Table 12 below.
The taste masking effect was assayed, following an analogous procedure to the one used in Example 1. A panel of experts was used to determine the reduction in unpleasant taste impressions of the protein milkshake preparations after addition of H2S.

The nature of data set [7]: Panel evaluation in orange juices containing oleuropeins. The following applies: orange juice with 500 ppm Olews 40%. The class given is in vivo. As to the method:
NaOH:H2O solutions containing different concentrations (100 ppm and 200 ppm) of Hesperidin 2S were prepared as explained above (Table 1) and added to orange juices containing 500 ppm Olews 40% (500 ppm Olews 40%=160 ppm oleuropein). Olews 40% provided by HealthTech Bio Actives S.L.U. (Beniel, Spain).
The taste masking effect against oleuropeins was assayed following an analogous procedure to the one used in Example 1 for paracetamol.
For each tested solution, a test panel determined the equibitter oleuropein solution, and the masking effect was calculated as explained in Example 1. A panel of experts was used to determine the reduction in unpleasant taste impressions of the orange juice preparations containing oleuropeins after addition of H2S.

A short description of data set [8]: Panel evaluation in greening affected orange juices. The class given is in vivo. The settings on record: greening affected orange juice. As to the method:
Orange Juice samples obtained from oranges from trees afflicted with greening disease were provided by F&M Solutions (Brasil). The juice samples were prepared by squeezing oranges collected from afflicted tree branches from local Brazilian farmers. The squeezed orange juice was bottled and pasteurized by standard methods well known in the art.
Different concentrations of Hesperidin 2S (100 ppm and 200 ppm) were evaluated in the orange juices from greening afflicted oranges.
A panel of experts was used to determine the reduction in unpleasant taste impressions of the different samples.

Data set [9] is described as follows: Panel evaluation in fresh squeezed orange juices. The following applies: 100 ppm or 200 ppm H2S; fresh squeezed orange juice. It counts as in vivo. The protocol: NaOH:H2O solutions containing different concentrations (100 ppm and 200 ppm) of Hesperidin 2S were prepared as explained above (Table 1) and added to fresh squeezed orange juices.
A panel of experts was used to determine the reduction in unpleasant tastes of the fresh squeezed orange juices after addition of different concentrations of H2S.

Data set [10] is described as follows: Panel evaluation in dark chocolate 95%. It counts as in vivo. The protocol: Reduction of unpleasant taste impressions in dark chocolate (95%) preparations was evaluated using different concentrations of H2S (100 ppm and 200 ppm).
Hesperidin 2S (dry powder) was incorporated into a sample of melted dark chocolate (95%). The liquid mass was cooled and mold, obtaining a solid chocolate.
A panel of experts was used to determine the reduction in unpleasant taste impressions of the dark chocolate (95%) preparations.

Data set [11] is described as follows: Panel evaluation in limonin solution (greening disease model). The class given is in vivo. The settings on record: 200 ppm H2S in limonin 50 ppm solution. The protocol: In order to determine the reduction in unpleasant taste impressions (bitterness) by hesperidin in a greening disease model, a limonin solution was prepared as indicated in Table 6. This solution was used for testing. Limonin (99.66%) was purchased from TargetMol.
The effect of H2S (200 ppm) in a limonin solution (50 ppm) was evaluated. A panel of experts was used to determine the reduction in unpleasant taste impressions of the limonin-containing preparation.

The mark [12] stands for this setting: 10 ppm test substance in 5000 ppm paracetamol aqueous solution.
Where [13] appears, read: 50 ppm test substance in 5000 ppm paracetamol aqueous solution.
[14] abbreviates: 100 ppm test substance in 5000 ppm paracetamol aqueous solution.
Setting [15] is: 250 ppm test substance in 5000 ppm paracetamol aqueous solution.
[16] abbreviates: 250 ppm test substance in 5000 ppm paracetamol aqueous solution, listed as hesperidin.
The mark [17] stands for this setting: 500 ppm test substance in 5000 ppm paracetamol aqueous solution.

In the case of `COc1ccc([C@@H]2CC(=O)c3c(O)cc(O[C@@H]4O[C@H](CO[C@@H]5O[C@@H](C)[C@H](O)[C@@H](O)[C@H]5O)[C@@H](O)[C@H](O)[C@H]4O)cc3O2)cc1O` (racemic) [Hesperidin 2S, (2S)-5-hydroxy-2-(3-hydroxy-4-methoxyphenyl)-7-[(2S,3R,4S,5S,6R)-3,4,5-trihydroxy-6-{[(2R,3R,4R,5R,6S)-3,4,5-trihydroxy-6-methyloxan-2-yl]oxymethyl}oxan-2-yl]oxy-2,3-dihydrochromen-4-one], the “% of bitterness reduction” value came out at 5% in data set [1] (setting [12]); 11% in data set [1] (setting [13]); 20% in [1] (setting [14]); 37% in [1] (setting [15]); 37% in [1] (250 ppm test substance in 5000 ppm paracetamol aqueous solution, listed as H2S); 20% in data set [1] (setting [16]). In addition, the “% of bitterness reduction” value in [1] (250 ppm test substance in 5000 ppm paracetamol aqueous solution, listed as non-racemic hesperidin 2S) came to 37%; in data set [11], 30%. For the same compound, the Equibitter paracetamol concentration in data set [1] (setting [12]) stood at 4750 ppm; in data set [1] (setting [13]), 4450 ppm; in data set [1] (setting [14]), 4000 ppm; in data set [1] (setting [15]), 3150 ppm; in data set [1] (setting [16]), 4000 ppm. For the same compound, in data set [2] (KCl-containing crackers), the “pungent and metallic notes” value is given as “suppressed”. Also, the saltiness entry in [2] (crackers with reduced sodium chloride) is “increase”. Further, the bitterness entry in [3] (100 ppm H2S) was “significant reduction”; in [3] (200 ppm H2S) it was “reduction”; in data set [4] (100 ppm H2S), “decrease”; in data set [10] (200 ppm H2S as printed), “decrease”. For the same compound, the flavonoid notes entry in data set [4] (100 ppm H2S), in data set [4] (200 ppm H2S) and in data set [10] (200 ppm H2S) was “not present” in each case. Besides, the woody off-flavor notes result in [4] (100 ppm H2S) and in data set [4] (200 ppm H2S) was “reduced” in each case. For the same compound, the “bitterness and bean notes” value in [4] (200 ppm H2S) is given as “decreased”. Further, the “solubility in presence of NaOH” value in data set [5] (in presence of NaOH) is listed as “increases”. Besides, in data set [5] (water), the solubility in water entry is given as “less than 10 ppm”. In addition, in [6], the bitter taste entry is on record as “reduced”. Further, in [6], the dry fava notes entry is listed as “reduced”. For the same compound, the orange notes result in data set [7] (200 ppm H2S (FIG. 1B)) is recorded as “enhanced”. Also, the “woody and bitter taste coming from the oleuropein masked” value in [7] (200 ppm H2S (FIG. 1B)) came out at 40%. For the same compound, in data set [7] (200 ppm H2S as printed (FIG. 1A)), the “woody and bitter taste” value is reported as “masked”. In addition, the “bitterness, acidity and astringency” value in data set [8] (100 ppm H2S) was “significant reduction”; in data set [8] (200 ppm H2S, to a lesser extent than 100 ppm), “reduction”. Also, the flavonoid note entry in data set [8] (100 ppm H2S) is “noticeable”; in [8] (200 ppm H2S), “increased”. Moreover, the “green orange notes and bitter aftertaste” value in data set [8] (100 ppm H2S) was “Reduction”; in [8] (200 ppm H2S) it was “reduction”. The overall orange notes entry was “slight reduction” in data set [8] (100 ppm H2S) and “reduction” in data set [8] (200 ppm H2S). Also, the “astringent and bitter taste” value in data set [9] is given as “clearly reduced”. The bitterness and astringency result in [10] (200 ppm H2S) was “decreased”. In addition, the cocoa notes result in [10] (200 ppm H2S as printed) is “slightly enhanced”. The compound further displayed an Equibitter in data set [11] of 35 ppm.
On to `COc1ccc([C@@H]2CC(=O)c3c(O)cc(O[C@@H]4O[C@H](CO[C@@H]5O[C@@H](C)[C@H](O)[C@@H](O)[C@H]5O)[C@@H](O)[C@H](O)[C@H]4O)cc3O2)cc1O` (racemic) [Racemic Hesperidin, hesperidin], for which the “% of bitterness reduction” value is on record as 4% in data set [1] (setting [12]), 6% in data set [1] (setting [13]), 13% in [1] (setting [14]) and 18% in data set [1] (setting [15]). The Equibitter paracetamol concentration is listed as 4800 ppm in data set [1] (setting [12]), 4700 ppm in data set [1] (setting [13]), 4350 ppm in data set [1] (setting [14]) and 4100 ppm in data set [1] (setting [15]).
Turning to `COc1ccc(-c2cc(=O)c3c(O)cc(O[C@@H]4O[C@H](CO)[C@@H](O)[C@H](O)[C@H]4O[C@@H]4O[C@@H](C)[C@H](O)[C@@H](O)[C@H]4O)cc3o2)cc1O` [Neodiosmin, neodiosmin, reference compound], the “% of bitterness reduction” value in data set [1] (setting [13]) was found to be 12%; in data set [1] (setting [14]), 12%; in [1] (setting [15]) it was 16%; in data set [1] (setting [17]), 24%. Moreover, the Equibitter paracetamol concentration in [1] (setting [13]) is listed as 4400 ppm; in [1] (setting [14]), 4400 ppm; in [1] (setting [15]) it was 4200 ppm; in data set [1] (setting [17]), 3800 ppm.
